According to patent US11420994B2, “Carbon-monoxide-releasing molecules and therapeutic applications thereof” (GEORGIA STATE UNIVERSITY RESEARCH FOUNDATION, INC., priority 2016, dated 2022):
Like-named read-outs stand apart in the source and are kept apart here.

Columns and labels:
[1] = MTT cytotoxicity test of mannose-modified reactants
Method: The cytotoxicity test, MTT assay, was performed to define the concentration using TPCPD-M (57, 1 mM) and BCN-M (61, 1 mM) (FIG. 4).

TNF-α [2] = assay: LPS-induced accumulation of TNF-α in RAW 264.7 culture supernatant (ELISA), two-component system; type: cell-based, mouse
Method: RAW264.7 cell were seeded in 6-well plates and incubated overnight. Cells were then stimulated with LPS (10 mg/mL) for 1 h. TPCPD (1) and BCN (6a) (different concentrations) were added to well after 1 hr LPS treatment (same for all wells). As a control, the product (31) was used at same concentration as the anti-inflammation test to confirm that the suppression of TNF-α is result of CO instead of the reagent (or product) themselves (compounds 1, 6a, and 31). TNF-α secretion in the medium was measured with an eBioscience kit (mouse TNF-α ELISA kit, eBioscience, San Diego, Calif., USA).
TNF-α is a major pro-inflammatory cytokine, mainly secreted from macrophages and dendritic cells. Its production is induced in vitro by stimulation with LPS. The accumulation of TNF-α was assessed by ELISA in the culture supernatant of the macrophage cell line, RAW 264.7 (FIG. 5). The cells were stimulated for 1 h and then co-treated by […] for 24 h. […] A 50% decrease of the LPS-induced accumulation of TNF-α was observed after co-treatment with TPCPD-M and BCN-M at the respective concentration of 1 mM+1 mM.

[3] = CO release kinetics by increase of fluorescence intensity; type: physicochemical
Method: Compound 10a was dissolved indifferent solvents including CH2Cl2 (25° C.), CH3CN (25° C.), DMSO (25° C.), DMSO/PBS (10:1, 25° C.), DMSO/PBS (5:1, 25° C.), and DMSO/PBS (5:1, 37° C.) to give a final concentration of around 100 μM, and CO release was monitored by fluorescence intensity at 450 nm. Each experiment was repeated three times independently. The CO release rate (first order reaction rate) in DCM, CH3CN, DMSO, DMSO/PBS (10:1), DMSO/PBS (5:1), and DMSO/PBS (5:1, 37° C.) were different and their individual rate constant was calculated to be 2.3±0.2, 3.6±0.4, 6.6±0.6, 7.7±0.6, 11.0±1.4 and 22.4±3.2 h^−1, respectively. […] The CO release rate increased along with the polarity of the solvent.

[4] = Fluorescence properties of the cycloaddition products; type: physicochemical
[5] = Intramolecular DAR in DMSO/PBS (7.4) at 37° C., time to completion; type: physicochemical
Method: A solution of compound 10b in DMSO/PBS (7.4) was incubated at 37° C. for 3 hrs, after which the intramolecular DAR reaction finished. Then the reaction mixture was extracted with ethyl acetate, and the obtained organic layer was dried with anhydrous Na2SO4, filtered and concentrated. Thus obtained pale yellow solid was characterized by ^1H NMR as the intramolecular DAR product. ^1H NMR (400 MHz, CDCl3): δ 9.27 (d, J=7.2 Hz, 1H), 7.88 (d, J=8.0 Hz, 1H), 7.79 (d, J=8.0 Hz, 1H), 7.71 (t, J=7.6 Hz, 1H), 7.61-7.53 (m, 5H), 7.32 (t, J=8.0 Hz, 1H), 7.08 (s, 1H), 7.04 (d, J=7.2 Hz, 1H), 5.37-5.18 (m, 1H), 3.53 (t, J=6.0 Hz, 2H), 3.05 (t, J=6.0 Hz, 2H), 1.32 (d, J=6.8 Hz, 6H).
A solution of compound 10b in DMSO/PBS (7.4) was incubated at 37° C. for 24 hrs, after which the intramolecular DAR reaction was finished. Then the reaction mixture was extracted with ethyl acetate, and the obtained organic layer was dried with anhydrous Na2SO4. Filtered and concentrated, the obtained pale yellow solid was characterized by ^1H NMR as the intramolecular DAR product. ^1H NMR (400 MHz, CDCl3) δ 9.12 (d, J=8.0 Hz, 1H), 7.83 (d, J=8.4 Hz, 1H), 7.73 (d, J=8.4 Hz, 1H), 7.68 (t, J=8.0 Hz, 1H), 7.63-7.54 (m, 3H), 7.36 (d, J=8.0 Hz, 2H), 7.24 (t, J=8.0 Hz, 1H), 6.32 (d, J=8.0 Hz, 1H), 5.29-5.26 (m, 1H), 3.57-3.46 (m, 2H), 3.05-2.94 (m, 2H), 2.12 (s, 3H), 1.33 (d, J=6.8 Hz, 6H). […]

TNF-α [6] = assay: TNF-α ELISA in LPS treated RAW 264.7 cells pre-treated with CO prodrug; type: cell-based, mouse; settings: pre-treated 5 h, then LPS 1 h
Method: RAW 264.7 cells were seeded in the 48-well plate one day before the experiment.
LPS was used to initialize the inflammatory response in RAW 264.7 cells and trigger the expression of cytokines. RAW 264.7 cells were pre-treated with different concentrations of 10b or 44b product for 5 hours. Thereafter, […] LPS was added with into the cell culture media. For TNF-α test, the cell culture supernatant was collected after 1 hour of LPS treatment. For IL-6 test, the cell culture supernatant was collected after 4 hours of LPS treatment. Cell culture without LPS treatment was used as control.
(§1) 10a-10d, and 100 with different release rates were chosen to test their inhibitory effect against lipopolysaccharide (LPS) induced TNF-α secretion in RAW 264.7 cells. […] This was followed by the treatment of LPS for another 1 h. Then the cell culture supernatants were subjected to ELISA assay for TNF-α levels.

RAW 264.7 cells = assay: Cytotoxicity of CO prodrugs and inactive products (MTT); type: cell-based, mouse; settings: 24 h incubation
Method: The toxicity of compound 10b and product of compound 10b (44b) after CO release were tested on RAW 264.7 cells, which is a mouse macrophage cell line used for anti-inflammation test. Different concentrations of 10b and 44b product were added into the cell culture media (Dulbecco's Modified Eagle's Medium supplemented with 10% heat inactivated fetal bovine serum and 1% penicillin-streptomycin). All samples with different concentrations of 10b or 44b product contained 1% DMSO in the cell culture media. RAW 264.7 cells were seeded in 96-well plate one day before the experiment. The cells were then incubated with the compound for 24 hours at 37° C. with 5% CO2. The cell viability was tested by MTT assay. Basically, after 24 hours of incubation, 0.5 mg/mL MTT (3-(4,5-Dimethylthiazol-2-yl)-2,5-Diphenyltetrazolium Bromide) was added into the cell culture and incubated for 4 hours. Thereafter, the supernatant was removed and 100 μL of DMSO were added into the wells containing cells. After shaking gently for 3 minutes, absorbance at 570 nm was read by plate reader.
as §1

[7] = Determination of CO release rates (fluorescence or UV absorbance); type: physicochemical; settings: DMSO/PBS (4:1) at 37° C.
Method: For CO prodrugs with naphthalene scaffold, the CO release rate is easily done by monitoring the fluorescence intensity of the cyclized product. For the others, the CO release rate was determined by employing the UV absorbance difference between the prodrugs and the cyclized product.

[8] = CO release kinetics by increase of fluorescence intensity; type: physicochemical; settings: PBS with 1% DMSO; 1% of DMSO in PBS (pH = 7.4); read-out: t1/2 half-life for CO release (converted)
[9] = test system: pulmonary arterial hypertension; settings: breathing CO gas (e.g., 150 ppm), after 16 weeks; cited from earlier work
[10] = of the cycloaddition products 44a-44f and 100a

O=C(NCCOCCOCCOC1OC(CO)C(O)C(O)C1O)OCC1[C@H]2CCC#CCC[C@@H]12 (some centres unmarked) [BCN-M]
cytotoxicity ([1]; 24 h of treatment, within 1 mM): none of the compounds led to any cytotoxicity
decrease of the LPS-induced accumulation of TNF-α (TNF-α [2]; co-treatment with TPCPD-M and BCN-M 1 mM+1 mM, 24 h): 50%
inhibition of the LPS-induced accumulation of TNF-α (TNF-α [2]; tested separately): do not lead to any inhibition

C#CCN(C)C(=O)C1=C2C(=C(c3ccccc3)C1=O)c1cccc3cccc2c13 [Compound 10a]
k CO release rate ([3]; CH2Cl2 at room temperature (25° C.)): 2.3 ± 0.2 h⁻¹
CO release rate constant (first order) ([3]; CH3CN (25° C.)): 3.6 ± 0.4 h⁻¹
CO release rate constant (first order) ([3]; DMSO (25° C.)): 6.6 ± 0.6 h⁻¹
CO release rate constant (first order) ([3]; DMSO/PBS (5:1, 25° C.)): 11.0 ± 1.4 h⁻¹
CO release rate constant (first order) ([3]; DMSO/PBS (10:1, 25° C.)): 7.7 ± 0.6 h⁻¹
k CO release rate ([3]; DMSO/PBS (pH = 7.4) 5:1 at 37° C.): 22.4 ± 3.2 h⁻¹
λem emission wavelength [4, 10]: 450 nm
λex excitation wavelength [4, 10]: 371 nm
Φ quantum yield ([4]; of the cycloaddition products 44a-44f and 100a in MeOH, quinine sulfate as the standard): 0.21
incubation time after which the intramolecular DAR reaction was finished [5]: 5 min

O=C1c2c(cc(-c3ccccc3)c3c2-c2cccc4cccc-3c24)CCN1CCOC1OC(CO)C(O)C(O)C1O (centres unmarked) [Compound 100a]
LPS-induced TNF-α expression / secretion (TNF-α [6]): dose-dependently inhibited
effect on cell viability (RAW 264.7 cells): did not show any effect on cell viability at up to 50 μM

C#CCCN(CCOC1OC(CO)C(O)C(O)C1O)C(=O)C1=C2C(=C(c3ccccc3)C1=O)c1cccc3cccc2c13 (centres unmarked) [Compound 100]
half-life ([3]; DMSO/PBS 5:1, DMSO/PBS (pH = 7.4) 5:1 at 37° C., read-out: t1/2 half-life for CO release (converted)): 2.1 h
effect on cell viability (RAW 264.7 cells): did not show any effect on cell viability at up to 50 μM
K CO release [7]: 0.33 ± 0.01 h⁻¹
half-life [8]: 0.18 h

NCC(=O)O.[C-]#[O+].[C-]#[O+].[C-]#[O+].[Cl][Ru] [CORM3, reference compound]
decrease in cell viability ([1]; 1 mM): 30%

carbon monoxide [CO]
decrease of pulmonary vascular resistance compared to the pre-therapy value [9]: 20%

C#CCOc1ccccc1C1=C2C(=C(C(=O)N3CCOCC3)C1=O)c1cccc3cccc2c13 [Compound 51]
K CO release [7]: 0.31 ± 0.003 h⁻¹
incubation time after which the intramolecular DAR reaction was finished [5]: 960 min
